Data: the NIST ThermoML archive (doi:10.1016/j.jct.2008.09.008)

Test: wn = mass fraction of the nth substance listed
Conditions: 101 kPa, Liquid; for viscosity: Capillary tube (Ostwald / Ubbelohde) method; for speed of sound: Linear variable-path acoustic interferometer; for mass density: Pycnometric method

OCCCCO [1,4-butanediol] + O
Conditions | mass density, w1 = 0.2 [kg/m3] | mass density, w1 = 0.4 [kg/m3] | speed of sound, w1 = 0.2 [m/s] | speed of sound, w1 = 0.4 [m/s] | viscosity, w1 = 0.2 [mPa·s] | viscosity, w1 = 0.4 [mPa·s]
298.15 K | 1004.93 | 1013.41 | 1605.3 | 1684.2 | 3.421 | 6.454
303.15 K | 1002.93 | 1010.75 | 1606.6 | 1677.4 | 2.966 | 5.738
308.15 K | 1000.79 | 1008.04 | 1607.8 | 1670.7 | 2.542 | 4.993
313.15 K | 998.53 | 1005.28 | 1608.5 | 1664 | 2.142 | 4.221
318.15 K | 996.15 | 1002.46 | 1609.3 | 1657.2 | 1.774 | 3.421
